What all share (format): cell-based
Assay [1] has as its system rat aorta smooth muscle cells. Briefly: Microscopy of cultured cells (Nomarski, DAPI, FITC-annexin V). The following applies: for morphological changes: serum free DMEM. The protocol:
Rat aorta smooth muscle cells were grown on methanol-cleansed coverslips in 6-well plates and incubated for 2 or 5 h in serum free DMEM with/without LL-37 (10 or 30 μg/ml) or camptothecin (5 μg/ml, Sigma-Aldrich). After culture, the coverslips were washed with ice-cold PBS containing 1 mM Ca^2+ and the cells were then stained at room temperature for 20 min with FITC-annexin V (20 μg/ml, Roche Molecular Biochemicals, Mannheim, Germany) and 4'6-diamino-2-phenyliondole dihydrochloride (DAPI) nucleic acid stain (100 nM, Molecular probes, Eugene, OR, USA). Thereafter, the cells were fixed with 1 % paraformaldehyde (Becton Dickinson, Bedford MA, U.S.A) in ice-cold PBS containing 1 mM Ca^2+. Fixation was initiated on ice for 15 min and continued at room temperature for 45 min. Cover slips were then mounted using ProLong AntiFade Reagent (Molecular Probes). Visual inspection and recording of images was performed using a Nikon Eclipse TE300 inverted fluorescence microscope equipped with a Hamamatsu C4742-95 cooled CCD camera, using a Plan Apochromat 60 × objective.

A further assay concerns human neutrophils. Briefly: Flow cytometry, FITC-annexin V / propidium iodide. The following applies: LL-37 30 μg/ml, 30 and 120 minutes, not shown. The protocol: Human neutrophils were isolated from heparinized blood from healthy donors using the Polymorph isolation kit (Nycomed Pharma AS Diagnostics, Oslo, Norway). Following the manufacturer's instructions, whole blood was layered carefully on neutrophil isolation medium and centrifuged at 400 × g for 30 min at room temperature. After centrifugation the following fractions were apparent: mononuclear cells, neutrophils and erythrocyte pellet. The polymorphonuclear leukocytes layer was suspended in PBS, followed by 10 min centrifugation at 350 × g; residual erythrocytes were removed by hypotonic lysis. After two washes in PBS with centrifugation for 5 min at 250 × g, the pellet was suspended in Minimum essential medium (MEM) and neutrophils were counted using a hemocytometer. The concentration of cells was adjusted to 10^7 cells/ml.
Rat aorta smooth muscle cells were harvested from culture plates using trypsin/EDTA and washed in PBS once followed by a 2-h incubation in bicarbonate free MEM at 37°C using gentle end-over-end rotation. […] Fluorescence-activated cell sorter (FACS) analysis was performed immediately (Becton Dickinson FACS Calibur instrument). 10,000 cells/sample were counted, and results were evaluated by using the Cell Quest software (Becton Dickinson). […]
(A flow cytometer gives signals particle by particle.)

Assay [2] deals with caspase-3 activity in rat aorta smooth muscle cells. Kind of assay: Caspase-3 activity (fluorometric immunosorbent enzyme assay, FIENA). The settings on record: LL-37 30 μg/ml, 1, 3 and 7 h, corrected for intact cells, n = 6, P < 0.05. Here is the method:
Confluent rat aorta smooth muscle cells cultured on 24-well plates were incubated for 1, 3 or 7 h in serum free DMEM in the absence (control) or presence of LL-37 (10 or 30 μg/ml). The caspase-3 activity was measured by using a fluorometric immunosorbent enzyme assay (FIENA, Roche Molecular Biochemicals) according to the manufacturer's instructions. Briefly, the caspase-3 from cellular lysates was captured by immobilized monoclonal anti-caspase-3 antibodies followed by addition of a substrate that is cleaved by caspase-3 generating a fluorescent compound. Fluorescence was then measured at 400 nm excitation and 505 nm emission. […] The caspase-3 activity values were therefore corrected in order to correspond to the fraction of intact cells using the formula […]
Where VIC is the caspase-3 activity of intact cells, VC is the caspase-3 activity of the sample, VL is the LDH activity of the sample and VLT is the total LDH activity of lysed cells. The caspase-3 activity is expressed as % of untreated controls.

Assay [3] relates to rat aorta smooth muscle cells. Briefly: Flow cytometry, FITC-annexin V / propidium iodide. The settings on record: LL-37 30 μg/ml. The protocol:
Rat aorta smooth muscle cells were harvested from culture plates using trypsin/EDTA and washed in PBS once followed by a 2-h incubation in bicarbonate free MEM at 37°C using gentle end-over-end rotation. […] Staining was performed for 20 min on ice with FITC-annexin V (30 μg/ml) and propidium iodide (30 μg/ml, BD Pharmingen, San Diego, CA, USA) in calcium-containing PBS. Fluorescence-activated cell sorter (FACS) analysis was performed immediately (Becton Dickinson FACS Calibur instrument). 10,000 cells/sample were counted, and results were evaluated by using the Cell Quest software (Becton Dickinson). The same protocol was used for staining of human neutrophils incubated with LL-37 (30 μg/ml) for 30 or 120 min.

Assay [4] deals with rat aorta smooth muscle cells. Kind of assay: LDH release assay. The settings on record: LL-37 30 μg/ml, 1, 3 and 7 h, n = 7, P < 0.05. Here is the method: Confluent rat aorta smooth muscle cells cultured on 24-well plates were incubated for 1, 3, or 7 h in serum free DMEM in the absence (control) or presence of LL-37 (10 or 30 μg/ml). The lactate dehydrogenase (LDH) activity released into the medium was measured by using the in vitro toxicology assay kit (Tox-7, Sigma-Aldrich) according to the manufacturer's instructions. In short, the medium was centrifuged at 2000 × g for 4 min. The LDH in the supernatants converted a tetrazolium dye, which was measured spectrophotometrically at 490 nm. The LDH activity is expressed as % of total LDH activity of lysed cells.
A general note: LDH in the medium is a marker of cell lysis.

Assay [5] deals with human aortic smooth muscle cells. Briefly: Internucleosomal DNA fragmentation (Cell Death Detection ELISA). The following applies: LL-37 30 μg/ml, 16 h, n = 7, P < 0.05. Here is the method: (§1) Confluent rat or human aorta smooth muscle cells cultured on 24-well plates were incubated in serum free DMEM for 16 h in the absence (control) or presence of LL-37 (10 and 30 μg/ml). Internucleosomal DNA fragmentation was measured using a Cell Death Detection ELISA Kit (Roche Molecular Biochemicals) according to the manufacturer's instructions. In short, the cells were lysed in the culture wells and the DNA fragments in the lysate were bound to a microtiter plate coated with monoclonal anti-histone antibodies. The bound DNA fragments were then detected by peroxidase-conjugated monoclonal anti-DNA antibodies and 2,2'-azino-di- [3-ethylbenzthiazoline sulfonate]. Optical density was measured at 415 nm and is expressed as % of untreated controls.
(ELISA stands for enzyme-linked immunosorbent assay.)

Assay [6] relates to rat aorta smooth muscle cells. Described as above. The settings on record: 16 h, n = 7, P < 0.05. The protocol:
as §1

As to `CC[C@@]1(O)C(=O)OCc2c1cc1n(c2=O)Cc2cc3ccccc3nc2-1` [camptothecin], in assay [1] (camptothecin 5 μg/ml, not shown), the “cellular changes compared with those induced by LL-37 (30 μg/ml)” value was “similar”.
As for `CC[C@H](C)[C@H](NC(=O)[C@H](CCCCN)NC(=O)[C@H](CCC(=O)O)NC(=O)[C@H](CCCCN)NC(=O)[C@H](CO)NC(=O)[C@H](CCCCN)NC(=O)[C@H](CCCNC(=N)N)NC(=O)[C@H](Cc1ccccc1)NC(=O)[C@H](Cc1ccccc1)NC(=O)[C@H](CC(=O)O)NC(=O)CNC(=O)[C@H](CC(C)C)NC(=O)[C@@H](N)CC(C)C)C(=O)NCC(=O)N[C@@H](CCCCN)C(=O)N[C@@H](CCC(=O)O)C(=O)N[C@@H](Cc1ccccc1)C(=O)N[C@@H](CCCCN)C(=O)N[C@@H](CCCNC(=N)N)C(=O)N[C@H](C(=O)N[C@H](C(=O)N[C@@H](CCC(N)=O)C(=O)N[C@@H](CCCNC(=N)N)C(=O)N[C@H](C(=O)N[C@@H](CCCCN)C(=O)N[C@@H](CC(=O)O)C(=O)N[C@@H](Cc1ccccc1)C(=O)N[C@@H](CC(C)C)C(=O)N[C@@H](CCCNC(=N)N)C(=O)N[C@@H](CC(N)=O)C(=O)N[C@@H](CC(C)C)C(=O)N[C@H](C(=O)N1CCC[C@H]1C(=O)N[C@@H](CCCNC(=N)N)C(=O)N[C@H](C(=O)N[C@@H](CCC(=O)O)C(=O)N[C@@H](CO)C(=O)O)[C@@H](C)O)C(C)C)[C@@H](C)CC)C(C)C)[C@@H](C)CC` [LL-37], in the assay on human neutrophils, the “staining with propidium iodide and FITC-annexin V” value is reported as “weak staining”. The morphological changes entry in assay [1] (LL-37 10 μg/ml, not shown) was “only small and inconsistent morphological changes”; in assay [1] (LL-37 30 μg/ml, 2 or 5 h) it was “progressive cell shrinkage and a rough appearance of the cell membrane”. Also, the “FITC-annexin V binding of plasma membrane (microscopy)” value in assay [1] (LL-37 30 μg/ml, 2 or 5 h) is recorded as “bound FITC-annexin V”. Further, in assay [1] (LL-37 30 μg/ml, 2 or 5 h), the “nuclear appearance (DAPI stain)” value is “nuclei of most cells appeared smaller with fragmented chromatin”. In addition, the “caspase-3 activity versus untreated controls” value in assay [2] was “significant increase”. Further, the “increase in the propidium iodide fluorescence signal of the necrotic cells” value in assay [3] was “about 1000 fold”. Moreover, in assay [3] (10 to 180 minutes), the “increase in FITC-annexin V fluorescence” value was 15 fold. For the same molecule, the results for the “leftmost peak of FITC-annexin V fluorescence histogram” value in assay [3] (10 minutes) and in assay [3] (180 minutes) were “about 2 fluorescence units” and about 30 units, respectively. In assay [3] (within 10 minutes), the “increase in propidium iodide staining of the viable cells” value is given as 10 fold. The “release of LDH into medium versus control” value in assay [4] was “significantly increased”. Moreover, the “DNA fragmentation compared to controls” value in assay [5], in assay [6] (LL-37 10 μg/ml) and in assay [6] (LL-37 30 μg/ml) was “statistically significant DNA fragmentation” throughout.
